Test results taken from US20180072675A1, “ANTIMICROBIAL PYRIDINOHYDRAZIDE AND HYDRAZOMETHYLPYRIDINE-BASED AGENTS” (Board of Supervisors of Louisiana State University and …, priority 2015, published 2018).
Values after ≈ are worked out from the molar mass of the structure shown. Like-named read-outs stand apart in the source and are kept apart here.

What was measured:
[1] = tested on: C. albicans clinical isolate 1 (TW1); assay: MIC80 fungal growth inhibition, clinical isolate TW1; assay type: cell-based, Candida albicans; settings: for MIC80: Candida albicans, read-out: MIC80 TW1
Procedure: (§1) The antifungal activity of the pyridinohydrazide and hydrazomethylpyridine derivatives described in the s were evaluated in vitro using Candida albicans (ATCC Accession No. 10231) and Candida glabrata (ATCC Accession No. 48435). In addition, the compounds were evaluated for activity against two previously-described clinical isolates of C. albicans known to have developed azole-resistance. These isolates were obtained over a two year period from a single AIDS patient and the development of the azole-resistance mechanisms have been extensively characterized (White T C. Antimicrob. Agents Chemother. (1997) 41: 1482-1487). MIC assays were performed on the clinical isolates 1 and 17 (annotated TW1 and TW17, respectively), where isolate 1 was used as an azole-susceptible control and isolate 17 was considered azole-resistant. All assays were done in accordance with NCCLS reference documents (Clinical Laboratory and Standards Institute. Reference method for Broth Dilution Antifungal Susceptibility Testing of Yeasts: Approved Standard. M27-A3 2010; 28). The results of these screenings are summarized in Tables 1-9 (Examples 20-27) as the minimum concentrations that inhibited more than 80% of fungal growth (MIC80) as compared to positive controls containing 1% DMSO. Assays were performed in HEPES-buffered RPMI-1640 media. All MIC screens used a visual scoring method as opposed to spectroscopic analysis, due to the altered absorbance spectra of many of the compounds.

[2] = tested on: Candida albicans (ATCC Accession No. 10231); assay: MIC80 fungal growth inhibition, C. albicans ATCC 10231; assay type: cell-based; settings: for MIC80: Candida albicans
Procedure: as §1

[3] = tested on: Candida albicans ATCC Accession No. 10231; assay: Checkerboard synergy assay with fluconazole; assay type: cell-based; settings: for FIC Fluc: average FIC of fluconazole at varying concentrations of the test drug; for FIC Test: average FIC of the test drug at varying concentrations of fluconazole; for Activity (interaction with fluconazole): from FIC index; for FIC Index: sum of the two FICs, <1 synergistic, >=1 antagonistic
Procedure: Considering that two different modes of activity (cidal and static) were observed depending on the structural motifs present in our analogs, we performed a series of checkerboard assays to determine if representative active compounds were in fact acting in synergy with the azole, fluconazole. Each of these assays tested multiple concentrations of the selected analog in the presence of multiple concentrations of fluconazole. All checkerboard assays were prepared in 96-well plates. 200 μl of previously prepared drug solutions were added to each well in column 2. Using a multichannel pipette, 100 μl from each well in column 2 was serially diluted (1:2) horizontally across the plate, stopping at column 10. Contents of each well were mixed thoroughly. Column 11 was reserved for fluconazole MIC control and contained no other drug. 100 μl of media was added to each well, column 2-10. Each well was mixed thoroughly with a multichannel pipette. 100 μl was then removed and discarded from these wells. 100 μl of previously prepared fluconazole dilution was added to each well in row B. Using a multichannel pipette, 100 μl from each well was serially diluted (1:2) vertically down the plate, stopping at row F. Contents of each well were mixed thoroughly. Row G was reserved for tested drug MIC control and contained no fluconazole. Well G11 contained neither drug and served as a drug-free growth control. The final 100 μl from each well in row F was discarded.
The fungal samples were prepared from glycerol stocks of Candida albicans ATCC Accession No. 10231. The inoculum's concentration was adjusted to a McFarland standard between 0.08 and 0.12. Inoculum was then diluted at a ratio of 1:37.5 in buffered media. 100 μl of inoculum-media solution was added to each well. Following inoculation, the 96-well plates were wrapped in parafilm to prevent evaporation and incubated for overnight at 35° C. After 18 h, the wells showing growth were recorded.
Synergistic activity was determined based on the MIC read from these plates. The fractional inhibitory concentration (FIC) for a given well is the ratio of the minimum inhibitory concentration of one drug A in the presence another drug B to the minimum inhibitory concentration with only drug A. The FIC was calculated for the test drug in each of the wells along the growth/no-growth interface at varying concentrations of fluconazole, then these values were averaged to determine the average FIC for the test drug. The same process was used to calculate the average FIC for fluconazole at varying concentrations of the test drug. The sum of these two FICs gives the FIC index which can be used to determine the synergistic effect between the two drugs (Hsieh et al., Diagn. Microbiol. Infect. Dis. (1993) 16: 343-349). An FIC index value less than 1 indicated synergistic interactions between the two drugs while an FIC index value greater than or equal to 1 indicated antagonistic interactions.

[4] = Azole-susceptible, >80% growth inhibition, visual scoring
[5] = ATCC10231, Azole-susceptible, >80% growth inhibition, visual scoring, read-out: MIC80 C. albicans ATCC No. 10231

Row | SMILES | MIC80 [1, 4] | MIC80 [2, 5] | FIC Fluc [3] | FIC Test [3] | Activity (interaction with fluconazole) [3] | FIC Index [3] | MIC80 TW1 [1, 4] | MIC80 C. albicans ATCC No. 10231 [2, 4] | MIC80 [1] | MIC80 ([2]; ATCC10231, read-out: MIC80 C. albicans ATCC No. 10231)
1 | O=C(NN=Cc1cc([N+](=O)[O-])ccc1O)c1cccnc1 [AR12] | – | – | 1.00 | 1.00 | Antagonistic | 2.00 | 8 µg/mL (≈ 27.9 µM) | 4 µg/mL (≈ 14 µM) | – | –
2 | O=C(NN=Cc1cc([N+](=O)[O-])ccc1O)c1ccncc1 [AR18] | – | – | 1.00 | 1.00 | Antagonistic | 2.00 | 8 µg/mL (≈ 27.9 µM) | 4 µg/mL (≈ 14 µM) | – | –
3 | C(=N\Nc1ccccc1)/c1ccncc1 [AR48] | – | – | 3.87 | 0.80 | Antagonistic | 4.67 | – | – | 16 µg/mL (≈ 81.1 µM) | 31 µg/mL (≈ 157 µM)

The next lines start with results.

Row | MIC80 [1, 4] | MIC80 [2, 5] | SMILES | FIC Fluc [3] | FIC Test [3] | Activity (interaction with fluconazole) [3] | FIC Index [3] | MIC80 TW1 [1, 4] | MIC80 C. albicans ATCC No. 10231 [2, 4] | MIC80 [1] | MIC80 ([2]; ATCC10231, read-out: MIC80 C. albicans ATCC No. 10231)
4 | 4 µg/mL (≈ 15.7 µM) | 2 µg/mL (≈ 7.83 µM) | Cc1ccc(O)c(/C=N/NC(=O)c2ccccn2)c1 [AR2, (E)-N′-(2-Hydroxy-5-methylbenzylidene)picolinohydrazide] | 1.00 | 1.00 | Antagonistic | 2.00 | – | – | – | –
5 | 8 µg/mL (≈ 23.8 µM) | 16 µg/mL (≈ 47.6 µM) | O=C(N/N=C/c1cc(Br)ccc1O)c1ccc[n+]([O-])c1 [AR27] | 0.92 | 1.00 | Antagonistic | 1.92 | – | – | – | –
6 | 16 µg/mL (≈ 81.1 µM) | 16 µg/mL (≈ 81.1 µM) | C(=N\Nc1ccccc1)/c1cccnc1 [AR44] | 1.00 | 0.90 | Antagonistic | 1.90 | – | – | – | –
